Assay results: patent publication US20250043299A1, “POINT MUTATIONS THAT BOOST AROMATIC AMINO ACID PRODUCTION AND CO2 ASSIMILATION IN PLANTS” (Wisconsin Alumni Research Foundation, priority 2021, published 2025)

Biological target: T1, Arabidopsis thaliana DHS2 (SEQ ID NO:2) variant DHS2^A4 (sotaA4), G222S (Arabidopsis thaliana, UniProt Q00218, G222S)
T1 construct: without the predicted plastid transit peptide (amino acid residues; 49-525, 34-507, and 52-527, respectively); made in house; host or cells: E. coli
Assay: Differential scanning fluorimetry protein-ligand affinity analysis, DHS2 sotaA4
Assay type: binding
Conditions: ligand at 1 mM
Method: (A) Simplified pathway map of AAAs and AAA-derived metabolites used in the effector screening. […] Data are means±SEM (n=3 independent assays).
To examine the impact of the sota mutations on the interaction between DHS and AAA effectors (FIG. 22), a differential scanning fluorimetry (DSF) analysis (48) was conducted using the recombinant DHS2^WT and DHS2^A4 proteins. […] The fluorescence signal was monitored during the stepwise increase in temperature (1° C. per minute from 25° C. to 95° C.). The Tm was calculated by nonlinear regression analysis using the Boltzmann sigmoidal equation (48).

T1 sequence (Q00218 34-507 G222S): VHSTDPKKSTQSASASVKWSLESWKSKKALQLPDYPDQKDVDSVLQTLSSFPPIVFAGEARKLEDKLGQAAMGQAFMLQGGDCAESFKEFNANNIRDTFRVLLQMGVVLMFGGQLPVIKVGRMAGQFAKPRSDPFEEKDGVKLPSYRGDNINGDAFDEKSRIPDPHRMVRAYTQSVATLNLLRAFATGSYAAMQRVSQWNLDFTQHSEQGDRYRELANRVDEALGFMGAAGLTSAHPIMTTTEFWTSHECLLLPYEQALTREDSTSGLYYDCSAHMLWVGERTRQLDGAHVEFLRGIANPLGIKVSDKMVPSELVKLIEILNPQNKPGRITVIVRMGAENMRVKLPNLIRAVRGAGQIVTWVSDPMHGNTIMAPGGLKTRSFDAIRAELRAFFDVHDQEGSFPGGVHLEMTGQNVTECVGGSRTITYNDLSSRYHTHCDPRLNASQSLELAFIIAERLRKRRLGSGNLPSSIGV

SMILES: N[C@@H](Cc1c[nH]c2ccccc12)C(=O)O [Trp, tryptophan]
- binding (DSF): still binds Tyr and Trp
